Reference: patent US20240279205A1, “NOVEL BENZIMIDAZOLE DERIVATIVE” (Carna Biosciences, Inc., priority 2020, published 2024)
Structures can show the parent of a compound that is named as a salt.

target: T1, human STING (hSTING) (Homo sapiens, UniProt Q86WV6); experiment: Inhibition test of intracellular human STING (hSTING) pathway using SEAP reporter cells (HEK-Blue ISG), stimulation with Compound 3; assay type: cell-based; set-up: hSTING inhibitory activity: scale not given here; settings: Compound 3 10 nM stimulation, 21 hours
T1 construct: host or cells: HEK-Blue ISG cells (HEK293-derived SEAP reporter line)
T1 sequence (Q86WV6 whole entry H232R): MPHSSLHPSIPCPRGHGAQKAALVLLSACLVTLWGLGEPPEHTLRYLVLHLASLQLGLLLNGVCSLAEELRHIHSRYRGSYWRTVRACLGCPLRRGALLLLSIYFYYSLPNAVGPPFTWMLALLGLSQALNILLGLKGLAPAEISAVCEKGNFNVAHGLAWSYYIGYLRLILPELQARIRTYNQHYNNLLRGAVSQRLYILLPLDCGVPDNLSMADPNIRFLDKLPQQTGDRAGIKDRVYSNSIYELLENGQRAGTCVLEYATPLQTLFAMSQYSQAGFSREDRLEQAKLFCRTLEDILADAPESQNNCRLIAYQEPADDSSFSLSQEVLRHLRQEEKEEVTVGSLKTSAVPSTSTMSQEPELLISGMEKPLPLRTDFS
Description: Inhibition test of intracellular human STING (hSTING) pathway using reporter cells
Since STING activates the transcription factor IRF3 upon ligand stimulation, the activity of STING can be evaluated by a reporter assay using a secretory alkaline phosphatase (SEAP reporter) integrated downstream of an IRF-inducible promoter.
That is, the hSTING inhibitory activity of the test compound was evaluated using HEK-Blue™MISG cells (manufactured by Invivogen, #hkb-isg-1) incorporating a SEAP reporter. Activation of hSTING was performed by stimulation with the small molecule ligand Compound 3 as described in the literature (Ramanjulu, J. M., et al., Nature. 2018, 564 (7736), 439-443). HEK-Blue™MISG cells were seeded in a 96-well plate and cultured overnight at 37° C. in a 5% CO2 incubator. To each well of this cell culture plate, a test compound solution adjusted to a final concentration of 0.1 to 10 µM of the test compound was added, cultured for 1 hour in a CO2 incubator, and then Compound 3 (final concentration 10 nM) was added and further cultured in a CO2 incubator for 21 hours. After collecting the culture supernatant of each well, the reporter activity was measured by color development reaction with alkaline phosphatase.
The reporter activity of the test compound non-addition and Compound 3 addition group was set to 100%, and the reporter activity of the test compound non-addition and Compound 3 non-addition group was set to 0%. The IC50 value was determined by regression analysis of the inhibitory rate determined from the reporter activity at each compound concentration and the test compound concentration (logarithm).

hSTING inhibitory activity | SMILES
* * | Ic1ccc2[nH]cc(Nc3nc4ccccc4[nH]3)c2c1 [Example 16, N-(5-iodo-1H-indol-3-yl)-1H-benzo[d]imidazol-2-amine]
* * | C[C@H](O)Cn1c(Nc2c[nH]c3ccc(Cl)cc23)nc2cc(C(F)(F)F)ccc21 [Embodiment 243, (S)-1-{2-[(5-chloro-1H-indol-3-yl)amino]-5-(trifluoromethyl)-1H-benzo[d]imidazol-1-yl}propan-2-oar]
* * | COC(=O)c1cccc2[nH]c(Nc3c[nH]c4ccc(Br)cc34)nc12 [Example 20, methyl 2-[(5-bromo-1H-indol-3-yl)amino]-1H-benzo[d]imidazole-4-carboxylate]
* * | CN(C)n1c(Nc2c[nH]c3ccc(F)c(F)c23)nc2cc(C(F)(F)F)cc(F)c21 [Embodiment 278, N2-(4,5-difluoro-1H-indol-3-yl)-7-fluoro-N1,N1-dimethyl-5-(trifluoromethyl)-1H-benzo[d] imidazole-1,2-diamine]

More lines, now with the values behind:

SMILES | hSTING inhibitory activity
Cn1c(Nc2c[nH]c3ccc(Br)nc23)nc2cc(C(F)(F)F)ccc21 [Embodiment 43, N-(5-bromo-1H-pyrrolo[3,2-b]pyridin-3-yl)-1-methyl-5-(trifluoromethyl)-1H-benzo[d]imidazol-2-amine] | * * *
Cn1cc(-c2ccnc3c(Nc4nc5cc(Oc6ccccc6)ccc5[nH]4)c[nH]c23)cn1 [Embodiment 71, N-[7-(1-methyl-1H-pyrazol-4-yl)-1H-pyrrolo[3,2-b]pyridin-3-yl]-5-phenoxy-1H-benzo[d]imidazole-2-amine formate] | * *

same assay, conditions: Compound 3 10 nM stimulation, 21 hours, read-out: hSTING inhibitory activity

IC50 [µM] | SMILES
≥ 10 | Cn1c(Nc2c[nH]c3ccc(Cl)nc23)nc2c(F)cc(F)cc21 [Embodiment 203, N-(5-Chloro-1H-pyrrolo[3,2-b]pyridin-3-yl)-4,6-difluoro-1-methyl-1H-benzo[d]imidazol-2-amine]
≥ 10 | CN(C)C(=O)Cn1c(Nc2c[nH]c3ccc(Cl)cc23)nc2cc(C(F)(F)F)ccc21 [Embodiment 229, 2-{2-[(5-chloro-1H-indol-3-yl)amino]-5-(trifluoromethyl)-1H-benzo [d]imidazol-1-yl}-N,N-dimethyl Acetamide]
1 to 10 | Brc1cc2c(Nc3nc4cc(Oc5ccccc5)ccc4[nH]3)c[nH]c2cn1 [Example 11, N-(5-bromo-1H-pyrrolo[2,3-c]pyridin-3-yl)-5-phenoxy-1H-benzo[d]imidazol-2-amine]
≥ 10 | COCCn1c(Nc2c[nH]c3ccc(Cl)nc23)nc2cccc(C(F)(F)F)c21 [Embodiment 180, N-(5-chloro-1H-pyrrolo[3,2-b]pyridin-3-yl)-1-(2-methoxyethyl)-7-(trifluoromethyl)-1H-benzo[d]imidazol-2-amine]
≥ 10 | Fc1ccc2[nH]cc(Nc3nc4ccccc4[nH]3)c2c1 [Example 14, N-(5-fluoro-1H-indol-3-yl)-1H-benzo[d]imidazol-2-amine]

The next lines start with the compound.

SMILES | IC50 [µM]
Cc1ccc2c(c1)nc(Nc1c[nH]c3ccc(Cl)nc13)n2C [Embodiment 156, N-(5-Chloro-1H-pyrrolo[3,2-b]pyridin-3-yl)-1,5-dimethyl-1H-benzo [d]imidazol-2-amine] | ≥ 10
Cn1c(Nc2c[nH]c3ccc(Cl)nc23)nc2ccc(C3CCOCC3)cc21 [Embodiment 154, N-(5-chloro-1H-pyrrolo[3,2-b]pyridin-3-yl)-1-methyl-6-(tetrahydro-2H-pyran-4-yl)-1H-benzo[d] imidazol-2-amine] | ≥ 10
Cn1c(Nc2c[nH]c3ccc(Cl)nc23)nc2cc(Cl)ccc21 [Embodiment 172, 5-Chloro-N-(5-chloro-1H-pyrrolo [3,2-b]pyridin-3-yl)-1-methyl-1H-benzo[d]imidazol-2-amine] | 1 to 10
Cn1c(Nc2c[nH]c3ccc(Cl)nc23)nc2cc(F)ccc21 [Embodiment 168, N-(5-Chloro-1H-pyrrolo[3,2-b]pyridin-3-yl)-5-fluoro-1-methyl-1H-benzo[d]imidazol-2-amine formate] | ≥ 10
CN(C)C(=O)c1cccc2c(Nc3nc4cc(Oc5ccccc5)ccc4[nH]3)c[nH]c12 [Embodiment 122, N,N-dimethyl-3-[(5-phenoxy-1H-benzo[d]imidazol-2-yl)amino]-1H-indole-7-carboxamide formate] | 1 to 10
CS(=O)(=O)c1ccccc1Oc1ccc2[nH]c(Nc3c[nH]c4ccc(Br)nc34)nc2c1 [Embodiment 68, N-(5-bromo-1H-pyrrolo[3,2-b]pyridin-3-yl)-5-[2-(methylsulfonyl)phenoxy]-1H-benzo[d]imidazol-2-amine] | ≥ 10
Cc1cnc2[nH]cc(Nc3nc4cc(Oc5ccccc5)ccc4[nH]3)c2c1 [Embodiment 107, N-(5-methyl-1H-pyrrolo[2,3-b]pyridin-3-yl)-5-phenoxy-1H-benzo[d]imidazol-2-amine] | ≥ 10
COCCn1c(Nc2c[nH]c3ccc(Cl)nc23)nc2cc(Cl)c(Cl)cc21 [Embodiment 110, 5,6-dichloro-N-(5-chloro-1H-pyrrolo[3,2-b]pyridin-3-yl)-1-(2-methoxyethyl)-1H-benzo[d] imidazole-2-amine] | 1 to 10
Clc1ccc2[nH]cc(Nc3nc4c(C5CCOCC5)cccc4[nH]3)c2n1 [Embodiment 150, N-(5-chloro-1H-pyrrolo[3,2-b]pyridin-3-yl)-4-(tetrahydro-2H-pyran-4-yl)-1H-benzo[d]imidazole-2-amine] | ≥ 10
COCCn1c(Nc2c[nH]c3ccc(Br)nc23)nc2cc(Oc3ccccc3)ccc21 [Embodiment 92, N-(5-bromo-1H-pyrrolo[3,2-b]pyridin-3-yl)-1-(2-methoxyethyl)-5-phenoxy-1H-benzo[d]imidazol-2-amine] | 1 to 10
O=C(O)c1ccc2[nH]c(Nc3c[nH]c4ccc(Br)nc34)nc2c1 [Embodiment 37, 2-[(5-bromo-1H-pyrrolo[3,2-b]pyridin-3-yl)amino]-1H-benzo[d]imidazole-5-carboxylic acid] | ≥ 10
Cn1c(Nc2c[nH]c3ccc(Br)nc23)nc2ccc(C(F)(F)F)cc21 [Embodiment 42, N-(5-bromo-1H-pyrrolo[3,2-b]pyridin-3-yl)-1-methyl-6-(trifluoromethyl)-1H-benzo[d]imidazol-2-amine] | ≥ 10
Clc1ccc2[nH]cc(Nc3nc4c(-c5cccnc5)cccc4[nH]3)c2n1 [Embodiment 147, N-(5-Chloro-1H-pyrrolo[3,2-b]pyridin-3-yl)-4-(pyridin-3-yl)-1H-benzo[d]imidazol-2-amine] | ≥ 10
COc1cccc2[nH]c(Nc3c[nH]c4ccc(Br)nc34)nc12 [Embodiment 61, N-(5-bromo-1H-pyrrolo[3,2-b]pyridin-3-yl)-4-methoxy-1H-benzo[d]imidazol-2-amine] | 1 to 10
c1ccc(Oc2ccc3[nH]c(Nc4c[nH]c5c(-c6ccncc6)ccnc45)nc3c2)cc1 [Embodiment 163, 5-phenoxy-N-[7-(pyridin-4-yl)-1H-pyrrolo[3,2-b]pyridin-3-yl]-1H-benzo[d]imidazol-2-amine] | ≥ 10
CC(C)n1c(Nc2c[nH]c3ccc(Cl)nc23)nc2cc(Cl)c(Cl)cc21 [Embodiment 132, 5,6-dichloro-N-(5-chloro-1H-pyrrolo[3,2-b]pyridin-3-yl)-1-isopropyl-1H-benzo[d]imidazol-2-amine] | 1 to 10
Brc1cnc2c(Nc3nc4cc(Oc5ccccc5)ccc4[nH]3)c[nH]c2c1 [Embodiment 49, N-(6-bromo-1H-pyrrolo[3,2-b]pyridin-3-yl)-5-phenoxy-1H-benzo[d]imidazol-2-amine] | 1 to 10
